Where two headings read alike, the source gives them in different places.
Columns and labels:
A673 cells = assay: Inhibition of A673 cell proliferation (CyQUANT); assay type: cell-based; settings: Homo sapiens, read-out: A673 IC50
Procedure: Representative compounds of the invention were tested at different concentrations (from 4 μM to 126.4 pM; 0.5 log serial dilutions) for their ability to inhibit the proliferation of A673 cells. Known CDK inhibitors flavopiridol and triptolide were used as positive controls. Cells were grown in Dulbecco's Modified Eagle's Medium, +10% FBS+1 mM Sodium Pyruvate. The cells were cultured at 37° C. in a humidified chamber in the presence of 5% CO2. Proliferation assays were conducted over a 72 hour time period. CyQUANT® (Life Technologies, Chicago, Ill. USA) was used to assess the anti-proliferative effects of the compounds following manufacturer's directions and utilizing the reagents supplied with the CyQUANT® kit.

CDK7 = biological target: T1, CDK7 (Homo sapiens, UniProt P50613); assay: CDK7 kinase activity, Adapta kinase assay (Life Technologies); assay type: biochemical; settings: read-out: CDK7 Inhibition (IC50); note: concentrations from 10 µM down to 0.514 nM
T1 construct: purchased Life Technologies (Grand Island, N.Y.), Adapta kinase assay service
T1 sequence (P50613 whole entry): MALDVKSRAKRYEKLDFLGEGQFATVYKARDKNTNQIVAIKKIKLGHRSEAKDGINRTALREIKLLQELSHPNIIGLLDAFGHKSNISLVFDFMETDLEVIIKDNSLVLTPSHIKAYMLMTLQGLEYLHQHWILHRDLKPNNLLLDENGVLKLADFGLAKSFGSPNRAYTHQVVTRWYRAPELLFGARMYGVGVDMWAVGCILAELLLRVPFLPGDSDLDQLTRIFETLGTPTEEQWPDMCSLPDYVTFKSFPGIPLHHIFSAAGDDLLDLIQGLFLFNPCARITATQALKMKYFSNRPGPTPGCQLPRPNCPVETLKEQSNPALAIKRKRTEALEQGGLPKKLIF
T1 sequence (P51946 whole entry partner): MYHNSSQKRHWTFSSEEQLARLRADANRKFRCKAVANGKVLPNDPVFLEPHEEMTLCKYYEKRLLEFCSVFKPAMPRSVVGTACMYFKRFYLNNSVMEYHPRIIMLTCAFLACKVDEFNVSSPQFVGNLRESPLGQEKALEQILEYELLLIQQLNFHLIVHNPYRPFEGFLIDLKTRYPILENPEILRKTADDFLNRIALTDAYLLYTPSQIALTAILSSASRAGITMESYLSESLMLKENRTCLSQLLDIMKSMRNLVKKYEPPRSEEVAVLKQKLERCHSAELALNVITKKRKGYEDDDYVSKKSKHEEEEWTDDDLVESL
T1 sequence (P51948 whole entry partner): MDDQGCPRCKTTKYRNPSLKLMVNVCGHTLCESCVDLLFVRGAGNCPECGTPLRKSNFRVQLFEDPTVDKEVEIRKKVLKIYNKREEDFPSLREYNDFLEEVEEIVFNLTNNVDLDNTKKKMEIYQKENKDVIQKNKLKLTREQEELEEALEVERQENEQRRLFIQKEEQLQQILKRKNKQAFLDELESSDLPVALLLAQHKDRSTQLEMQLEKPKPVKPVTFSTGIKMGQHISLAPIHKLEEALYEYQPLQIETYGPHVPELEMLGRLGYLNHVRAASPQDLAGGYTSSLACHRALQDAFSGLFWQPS
Procedure: Compounds of the invention were assayed for CDK7 activity at Life Technologies (Grand Island, N.Y.) using their commercially available Adapta® kinase assay services. […] Details of this assay, including substrates used, are available on the Life Technologies web site (http://www.lifetechnologies.com/us/en/home/life-science/drug-discovery/target-and-lead-identification-and-validation/kinasebiology/kinase-activity-assays.html).

[1] = A673 cells, 72 hour proliferation, CyQUANT, 4 μM to 126.4 pM, 0.5 log serial dilutions

Structure (SMILES) | IC50 (A673 cells; [1]) | IC50 (CDK7) | IC50 (A673 cells; A673, 72 h)
CC(C)c1cnn2c(NC3CCN(C(=O)c4ccc(NC(=O)/C=C/CN(C)C)cc4)CC3)nc(OC3CCN(C)CC3)nc12 [Compound 102, (E)-4-(Dimethylamino)-N-(4-(4-((8-isopropyl-2-((1-methylpiperidin-4-yl)oxy)pyrazolo[1,5-a][1,3,5]triazin-4-yl)amino)piperidine-1-carbonyl)phenyl)but-2-enamide] | 500 to 5000 nM | > 1000 nM | 
CC(C)c1cnn2c(NCc3ccccc3NC(=O)c3ccc(NC(=O)/C=C/CN(C)C)cc3)nc(OC3CCN(C)CC3)nc12 [Compound 103, (E)-4-(4-(dimethylamino)but-2-enamido)-N-(2-(((8-isopropyl-2-((1-methylpiperidin-4-yl)oxy)pyrazolo[1,5-a][1,3,5]triazin-4-yl)amino)methyl)phenyl)benzamide] | 500 to 5000 nM | 100 to 1000 nM | 
CC(C)c1cnn2c(NCc3ccccc3NCc3ccc(NC(=O)/C=C/CN(C)C)cc3)nc(OC3CCN(C)CC3)nc12 [Compound 104, (E)-4-(dimethylamino)-N-(4-(((2-(((8-isopropyl-2-((1-methylpiperidin-4-yl)oxy)pyrazolo[1,5-a][1,3,5]triazin-4-yl)amino)methyl)phenyl)amino)methyl)phenyl)but-2-enamide] | < 500 nM | < 100 nM | 
CC(C)c1cnn2c(NCc3ccccc3N3CCN(C(=O)/C=C/CN(C)C)CC3)nc(OC3CCN(C)CC3)nc12 [Compound 105, (E)-4-(Dimethylamino)-1-(4-(2-(((8-isopropyl-2-((1-methylpiperidin-4-yl)oxy)pyrazolo[1,5-a][1,3,5]triazin-4-yl)amino)methyl)phenyl)piperazin-1-yl)but-2-en-1-one] | < 500 nM | < 100 nM | 
C=CC(=O)Nc1cccc(C(=O)N2CCC(C(=O)Nc3ncc(SCc4ncc(C(C)(C)C)o4)s3)CC2)c1 [Compound 117, 1-(3-Acrylamidobenzoyl)-N-(5-(((5-(tert-butyl)oxazol-2-yl)methyl)thio)thiazol-2-yl)piperidine-4-carboxamide] | < 500 nM |  | 
C=CC(=O)Nc1cccc(CN2CCC(C(=O)Nc3ncc(SCc4ncc(C(C)(C)C)o4)s3)CC2)c1 [Compound 118, 1-(3-Acrylamidobenzyl)-N-(5-(((5-(tert-butyl)oxazol-2-yl)methyl)thio)thiazol-2-yl)piperidine-4-carboxamide] |  | 100 to 1000 nM | < 500 nM
C=CC(=O)Nc1ccc(CN2CCC(C(=O)Nc3ncc(SCc4ncc(C(C)(C)C)o4)s3)CC2)cc1 [Compound 119, 1-(4-Acrylamidobenzyl)-N-(5-(((5-(tert-butyl)oxazol-2-yl)methyl)thio)thiazol-2-yl)piperidine-4-carboxamide] |  | 100 to 1000 nM | < 500 nM
C=CC(=O)N1CCC(CN2CCC(C(=O)Nc3ncc(SCc4ncc(C(C)(C)C)o4)s3)CC2)CC1 [Compound 120, 1-((1-Acryloylpiperidin-4-yl)methyl)-N-(5-(((5-(tert-butyl)oxazol-2-yl)methyl)thio)thiazol-2-yl)piperidine-4-carboxamide] |  | > 1000 nM | < 500 nM
C=CC(=O)Nc1cccc(C(C)N2CCC(C(=O)Nc3ncc(SCc4ncc(C(C)(C)C)o4)s3)CC2)c1 (centres unmarked) [Compound 121, 1-(1-(3-Acrylamidophenyl)ethyl)-N-(5-(((5-(tert-butyl)oxazol-2-yl)methyl)thio)thiazol-2-yl)piperidine-4-carboxamide] |  | 100 to 1000 nM | < 500 nM
C=CC(=O)Nc1ccc(C(=O)N2CCC(C(=O)Nc3ncc(SCc4ncc(C(C)(C)C)o4)s3)CC2)cc1 [Compound 122, 1-(4-Acrylamidobenzoyl)-N-(5-(((5-(tert-butyl)oxazol-2-yl)methyl)thio)thiazol-2-yl)piperidine-4-carboxamide] | < 500 nM |  | 
C=CC(=O)N1CCC(C(=O)N2CCC(C(=O)Nc3ncc(SCc4ncc(C(C)(C)C)o4)s3)CC2)CC1 [Compound 123, 1-(1-Acryloylpiperidine-4-carbonyl)-N-(5-(((5-(tert-butyl)oxazol-2-yl)methyl)thio)thiazol-2-yl)piperidine-4-carboxamide] | < 500 nM |  | 
C=CC(=O)N1CCCC(CN2CCC(C(=O)Nc3ncc(SCc4ncc(C(C)(C)C)o4)s3)CC2)C1 (centres unmarked) [Compound 125, 1-((1-Acryloylpiperidin-3-yl)methyl)-N-(5-(((5-(tert-butyl)oxazol-2-yl)methyl)thio)thiazol-2-yl)piperidine-4-carboxamide] |  | 100 to 1000 nM | < 500 nM
CN(C)C/C=C/C(=O)Nc1cccc(CN2CCC(C(=O)Nc3ncc(SCc4ncc(C(C)(C)C)o4)s3)CC2)c1 [Compound 127, (E)-N-(5-(((5-(tert-butyl)oxazol-2-yl)methyl)thio)thiazol-2-yl)-1-(3-(4-(dimethylamino)but-2-enamido)benzyl)piperidine-4-carboxamide] | < 500 nM | 100 to 1000 nM | 

— US10336760B2, “Inhibitors of cyclin-dependent kinase 7 (CDK7)” (SYROS PHARMACEUTICALS, INC., priority 2014, dated 2019)
